Experimental data published in patent US20140162974A1, “METHODS FOR MODULATION OF PHOSPHORUS AND FGF23” (Luitpold Pharmaceuticals, Inc., priority 2012, published 2014).
Entries after “also recorded” stand apart in the source; their conditions may differ.

What was measured:
Format in all cases: in vivo, human
intact FGF23 (iFGF23) = experiment: Example 3 trial: serum intact FGF23; conditions: for effect on iFGF23 levels: by day 1 (24 hours); for Intact FGF23, Day 1 / Intact FGF23, Day 7 / Intact FGF23, Day 14 / Intact FGF23, Day 35: mean ± standard error, unit from the 3rd table
Description: (§1) Study visits were on Days 0 (when iron was infused), 1 (24 hours after iron infusion), 7, 14, and 35. The primary objectives were to determine the effect of iron deficiency on cFGF23 and iFGF23 levels and the effect of intravenous iron on iFGF23 and cFGF23 levels.
(§2) Randomization occurred centrally via a fax-based system. […] The complete dose was infused over 15 minutes on day 0. […] An initial test dose of 25 mg was administered slowly over 5 minutes.
(§3) Laboratory testing of blood and three-hour urine collections was performed at the screening visit and on study days 0 (when iron was infused), 1 (24 hours after iron infusion), 7, 14, and 35 (see e.g., FIG. 2A). Any subject who experienced a reduction in serum phosphate below the normal range after day 0 underwent additional phosphate measurements at 14 day intervals following day 35 until the level returned to the normal reference range. Safety evaluations of all subjects included ascertainment of adverse events, physical examinations at all study visits, and laboratory assessments. Any subject who withdrew from the study received a follow-up phone call to ascertain adverse events 30 days after they received study drug.
(§4) Blood and urine samples were sent to a central laboratory for analysis (Covance Central Laboratory Service, Indianapolis, Ind.). Hemoglobin, blood counts, iron indices, electrolytes, and serum and urinary phosphate and creatinine were measured with standard, automated, multi-analyte techniques. Urinary fractional excretion of phosphate (FEPi) was calculated from the three-hour, morning urine collections as urinary phosphate x serum creatinine/serum phosphate x urinary creatinine. Serum levels of 25-hydroxyvitamin D and 1,25-dihydroxyvitamin D were measured in duplicate by radioimmunoassay (DiaSorin, Stillwater, Minn.) with intra-assay coefficients of variation (CV)<11.6%. Plasma C-terminal FGF23 (cFGF23) was measured in duplicate in EDTA-plasma samples using a human FGF23 immunometric assay capable of detecting both the intact peptide and its C-terminal fragments (Immutopics, San Clemente, Ca) with intra-assay CV≦3.8%. Because cFGF23 testing was performed in parallel with rolling enrollment and follow-up, all cFGF23 assay plates tested combinations of baseline and post-intervention samples from multiple study participants. Serum intact FGF23 (iFGF23) was measured in batches of baseline and post-intervention samples from multiple study participants at study end using an immunometric assay that detects the intact peptide exclusively (Kyowa Medex Company, Shizuoka, Japan) with intra-assay CV<2.7%. Serum hepcidin levels were measured on days 0, 7, and 35 using an enzyme-linked immunosorbent assay (Intrinsic LifeSciences, La Jolla, Calif.) with intra-assay CV≦19%. Urinary amino acids, glucose, albumin, and beta 2 microglobulin were measured to test for the possibility of global proximal tubular dysfunction. Urinary deoxypyridinoline cross link, and serum osteocalcin and bone-specific alkaline phosphatase were measured to assess bone turnover.
(§5) Baseline characteristics are presented as mean±standard error for continuous variables and as proportions for categorical variables. The association between iron indices and baseline and change in FGF23 levels was assessed with Spearman correlations. Restricted maximum likelihood-based repeated measures analyses (linear mixed models) that considered the effects of treatment, visit, and treatment x time interaction, with baseline values treated as a fixed covariate were used for the primary analyses of mean changes from baseline in continuous markers of phosphate homeostasis. The models employed unstructured covariance structures without imputing missing values. All outcome variables that were not normally distributed were analyzed after natural log-transformation. […]

[1] = test system: hemoglobin, ferritin, TSAT, hepcidin; experiment: Example 3 trial: erythropoiesis and iron parameters; design: Mean increase in ferritin from baseline to highest value: unit not given here; conditions: for Mean increase in hepcidin from baseline to highest value / effect of a single dose on hemoglobin and iron indices / proportion of group in which hemoglobin increased by 2.0 g/dL: in vivo; for Hemoglobin increase ≧2.0 g/dL, n (%): intention-to-treat in safety population, anytime to day 35; for Mean increase in ferritin from baseline to highest value / Mean increase in hemoglobin from baseline to highest value / Mean increase in transferrin saturation from baseline to highest value: mean ± standard error; for effect on TSAT and serum hepcidin levels: p≦0.001; for serum hepcidin levels by day 7: remained significantly elevated on day 35
Description: as §1, §2, §3
The pre-specified primary endpoints were changes in blood and urine markers of phosphate and bone metabolism among the evaluable population, defined as those subjects with baseline and at least one post-randomization set of FGF23 and blood and urinary phosphate levels. Secondary endpoints included the proportion of subjects achieving a hemoglobin increase […] anytime between baseline and day 35, and the change from baseline to highest hemoglobin, ferritin, and TSAT anytime during the 35-day study period. Additional safety endpoints included incidence, severity, and seriousness of adverse events, and incidence of treatment-emergent abnormal clinical laboratory values in the safety population, defined as all subjects who received the study drug regardless of subsequent laboratory testing.
as §4, with “turnover. […]” for “turnover.”

[2] = test system: C-terminal FGF23 (cFGF23); experiment: Example 3 trial: plasma C-terminal FGF23; conditions: for effect on cFGF23 levels: in vivo; for lowering of cFGF23 levels within 24 hours: intravenous iron in iron deficient women; for C-terminal FGF23, Day 1 / C-terminal FGF23, Day 7 / C-terminal FGF23, Day 14 / C-terminal FGF23, Day 35: mean ± standard error, unit from the 3rd table
Description: as §1, §2, §3, §4, §5

Row | Substance | Intact FGF23, Change from baseline (intact FGF23 (iFGF23); Day 1) [%] | Intact FGF23, Change from baseline (intact FGF23 (iFGF23); Day 7) [%] | Intact FGF23, Change from baseline (intact FGF23 (iFGF23); Day 14) [%] | Intact FGF23, Change from baseline (intact FGF23 (iFGF23); Day 35) [%] | effect on iFGF23 levels (intact FGF23 (iFGF23)) | Intact FGF23, Day 1 (intact FGF23 (iFGF23)) [pg/mL] | Intact FGF23, Day 7 (intact FGF23 (iFGF23)) [pg/mL] | Intact FGF23, Day 14 (intact FGF23 (iFGF23)) [pg/mL] | Intact FGF23, Day 35 (intact FGF23 (iFGF23)) [pg/mL] | Mean increase in hepcidin from baseline to highest value [1] [ng/mL] | effect of a single dose on hemoglobin and iron indices [1] | proportion of group in which hemoglobin increased by 2.0 g/dL [1] [%] | Hemoglobin increase ≧2.0 g/dL, n (%) [1] | Mean increase in ferritin from baseline to highest value [1] | Mean increase in hemoglobin from baseline to highest value [1] [g/dL] | Mean increase in transferrin saturation from baseline to highest value [1] [%] | effect on TSAT and serum hepcidin levels [1] | serum hepcidin levels by day 7 [1] | C-terminal FGF23, Change from baseline ([2]; Day 1) [%] | C-terminal FGF23, Change from baseline ([2]; Day 7) [%] | other results
1 | iron dextran [reference compound] | −13.4 | −4.4 | −1.3 | −9.3 | no significant changes; also recorded: but not iron dextran induced a significant increase | 24.6 ± 1.9 | 27.5 ± 1.7 | 28.4 ± 2.1 | 28.3 ± 1.7 | 77.8 | significantly increase | 53 | 16 (53) n (%) | 189 ± 21 | 2.2 ± 0.2 | 44 ± 3.0 | increased TSAT and serum hepcidin levels significantly | significantly increased | −82.5 | −85.6 | C-terminal FGF23, Change from baseline ([2]; Day 14): −87.3%; C-terminal FGF23, Change from baseline ([2]; Day 35): −80.0%; effect on cFGF23 levels [2]: rapidly lowered; lowering of cFGF23 levels within 24 hours [2]: 80%; C-terminal FGF23, Day 1 [2]: 152 ± 17.5 RU/mL; C-terminal FGF23, Day 7 [2]: 114 ± 17.7 RU/mL; C-terminal FGF23, Day 14 [2]: 107 ± 16.0 RU/mL; C-terminal FGF23, Day 35 [2]: 170 ± 51.2 RU/mL
2 | polynuclear iron (III)-hydroxide 4(R)-(poly-(1→4)-O-α-glucopyranosyl)-oxy-2(R),3(S),5(R),6-tetrahydroxy-hexanoate [FCM] | 128.0 | 91.8 | 59.1 | 2.0 | increased significantly by day 1; also recorded: significant increase | 65.2 ± 8.0 | 54.9 ± 18.0 | 45.8 ± 6.9 | 28.1 ± 2.9 | 33.4 | significantly increase | 60 | 15 (60) n (%) | 306 ± 41 | 2.0 ± 0.3 | 68 ± 6.4 | increased TSAT and serum hepcidin levels significantly | significantly increased | −78.6 | −80.9 | iFGF23 in FCM subjects who developed serum phosphate<2.0 mg/dL vs the remaining (intact FGF23 (iFGF23); stratified analysis): greater iFGF23 by day 1 that persisted through day 14; absolute difference in proportion with hemoglobin increase, FCM vs iron dextran ([1]; 95% CI −23.2, 36.6%, p=0.79): 6.7%; increase in serum ferritin by day 7 compared to iron dextran ([1]; thereafter levels similar): greater increase; C-terminal FGF23, Change from baseline ([2]; Day 14): −77.5%; C-terminal FGF23, Change from baseline ([2]; Day 35): −78.9%; effect on cFGF23 levels [2]: rapidly lowered; lowering of cFGF23 levels within 24 hours [2]: 80%; C-terminal FGF23, Day 1 [2]: 177 ± 12.4 RU/mL; C-terminal FGF23, Day 7 [2]: 165 ± 34.9 RU/mL; C-terminal FGF23, Day 14 [2]: 170 ± 55.8 RU/mL; C-terminal FGF23, Day 35 [2]: 182 ± 73.7 RU/mL; cFGF23 in FCM subjects who did vs did not develop serum phosphate<2.0 mg/dL ([2]; stratified analysis): decreased similarly in both groups
